# Activity calls are given as the source filed them.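 The calls were made as follows: active = mean EC50 of 20 µM or lower; inactive = the rest.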
# Biological target: Neurotensin receptor type 2 (Homo sapiens) (UniProt O95665)
# Experiment: beta-arrestin recruitment via NTR2 activation – imaging, NTR2-U2OS cells, beta-arrestin GFP imaging, selectivity assay for NTR1 agonist project, SAR follow-up (AID 588495)
# Settings: image-based GFP translocation
# Chain of Neurotensin receptor type 2 (Homo sapiens) (O95665 whole entry, looked up): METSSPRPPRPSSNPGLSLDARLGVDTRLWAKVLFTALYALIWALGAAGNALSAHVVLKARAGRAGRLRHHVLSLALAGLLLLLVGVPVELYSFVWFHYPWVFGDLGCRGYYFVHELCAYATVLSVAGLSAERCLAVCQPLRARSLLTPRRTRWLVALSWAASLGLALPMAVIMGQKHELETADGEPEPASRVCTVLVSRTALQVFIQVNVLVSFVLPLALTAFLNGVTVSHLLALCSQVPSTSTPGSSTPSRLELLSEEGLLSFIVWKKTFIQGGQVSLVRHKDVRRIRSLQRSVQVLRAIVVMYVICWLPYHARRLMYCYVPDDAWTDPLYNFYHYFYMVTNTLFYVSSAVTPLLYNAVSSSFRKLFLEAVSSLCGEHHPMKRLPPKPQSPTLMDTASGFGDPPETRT
row,Structure (SMILES),EC50
1,COc1cc2c3nnc(-c4ccc(C)cc4)c-3cn(Cc3ccc(C)cc3)c2cc1OC,5.38 µM
2,O=S(=O)(c1ccc(-c2csc(N/N=C/c3ccco3)n2)cc1)N1CCCC1,> 40 µM (inactive)
3,COc1cccc2c(C(=O)N[C@@H](CC(C)C)C(=O)O)cn(-c3ccnc4cc(Cl)ccc34)c12,> 40 µM (inactive)
4,COc1ccccc1-c1cc(C(=O)N[C@@H](CC(C)C)C(=O)OC(C)(C)C)nn1-c1ccnc2cc(Cl)ccc12,> 40 µM (inactive)
5,CC(C)C[C@H](NC(=O)c1cn(-c2ccnc3ccccc23)c2c(OCc3ccccc3)cccc12)C(=O)O,> 40 µM (inactive)
6,Cc1ccc(Cn2cc3c(-c4ccc(F)cc4)nnc-3c3cc4c(cc32)OCO4)cc1,15.3 µM
7,O=S(=O)(c1ccc(-c2csc(N/N=C/c3ccco3)n2)cc1)N1CCOCC1,> 40 µM (inactive)
8,CCOc1ccc(-c2nnc3c4cc(OC)c(OC)cc4n(Cc4ccc(F)cc4)cc2-3)cc1,inactive
9,CC(C)C[C@H](NC(=O)c1cn(-c2ccncc2)c(-c2ccccc2)n1)C(=O)O,> 40 µM (inactive)
10,CC(C)C[C@H](NC(=O)c1cn(-c2ccnc3cc(Cl)ccc23)c(-c2c(Cl)cccc2Cl)n1)C(=O)O,> 40 µM (inactive)
11,COc1cccc(OC)c1-c1nc(C(=O)O)cn1-c1ccncc1,> 40 µM (inactive)
12,CCCSc1nc2cc(OC)c(OC)cc2c(=N)n1Cc1cccc(C(F)(F)F)c1,> 40 µM (inactive)
13,COc1ccc2c(c1)c1nnc(-c3ccc(F)cc3)c-1cn2Cc1ccc(C)cc1,> 40 µM (inactive)
14,COc1ccccc1-c1cc(C(=O)O)nn1-c1ccnc2cc(Cl)ccc12,> 40 µM (inactive)
15,Cc1cccc(C)c1-c1nc(C(=O)N[C@@H](CC(C)C)C(=O)O)cn1-c1ccnc2cc(Cl)ccc12,> 40 µM (inactive)
16,Cc1ccc(/C=N/Nc2nc(-c3ccc(S(=O)(=O)N(C)C)cc3)cs2)cc1,> 40 µM (inactive)
17,COc1ccc(Cn2c(SCc3cc(C)ccc3C)nc3cc(OC)c(OC)cc3c2=N)cc1Cl,> 40 µM (inactive)
18,COc1cccc2c(C(=O)N[C@@H](CC(C)C)C(=O)O)cn(-c3ccnc4ccccc34)c12,> 40 µM (inactive)
19,COc1cccc(OC)c1-c1nc(C(=O)N[C@@H](CC(C)C)C(=O)O)cn1-c1cccc2ccccc12,> 40 µM (inactive)
20,COc1cc2c3nnc(-c4ccc(F)cc4)c-3cn(Cc3cccc(C)c3)c2cc1OC,4.47 µM
21,COc1ccc(-c2nc(C(=O)N[C@@H](CC(C)C)C(=O)O)cn2-c2ccnc3cc(Cl)ccc23)c(OC)c1,> 40 µM (inactive)
22,CN(C)S(=O)(=O)c1ccc(-c2csc(N/N=C/c3cccc(Cl)c3)n2)cc1,> 40 µM (inactive)
23,COc1cc2c3nnc(-c4ccccc4)c-3cn(Cc3ccc(C)cc3)c2cc1OC,> 40 µM (inactive)
24,COc1ccc(Cn2c(SCc3ccccc3C)nc3cc(OC)c(OC)cc3c2=N)cc1Cl,> 40 µM (inactive)
25,CCc1ccc(-c2nnc3c4cc(OC)c(OC)cc4n(Cc4ccc(F)cc4)cc2-3)cc1,inactive
26,COc1cccc(OC)c1-c1nc(C(=O)N[C@@H](CC(C)C)C(=O)O)cn1-c1ccncc1,> 40 µM (inactive)
27,CCOc1ccc(-c2nnc3c4cc(OC)c(OC)cc4n(Cc4ccc(C)cc4)cc2-3)cc1,> 40 µM (inactive)

row,Structure (SMILES),EC50
1,COc1cccc(OC)c1-c1nc(C(=O)NC2(C(=O)O)C3CC4CC(C3)CC2C4)cn1-c1ccnc2cc(Cl)ccc12 (configuration not stated),> 40 µM (inactive)
2,Cc1ccc(Cn2cc3c(-c4ccc(F)cc4)nnc-3c3ccccc32)cc1,> 40 µM (inactive)
3,CC(C)C[C@H](NC(=O)c1cn(-c2ccnc3ccccc23)c2ccccc12)C(=O)O,> 40 µM (inactive)
4,CN(C)S(=O)(=O)c1ccc(-c2csc(N/N=C/c3ccco3)n2)cc1,> 40 µM (inactive)
5,COc1cc2c3nnc(-c4ccc(Cl)cc4)c-3cn(Cc3ccc(F)cc3)c2cc1OC,7.78 µM
6,COc1cc2c3nnc(-c4ccc(C)c(C)c4)c-3cn(Cc3ccccc3)c2cc1OC,> 40 µM (inactive)
7,COc1cc2c3nnc(-c4ccc(Cl)cc4)c-3cn(Cc3ccc(C)cc3)c2cc1OC,19.9 µM
8,COc1cccc(OC)c1-c1cc(C(=O)N[C@@H](CC(C)C)C(=O)O)nn1-c1ccnc2cc(Cl)ccc12,> 40 µM (inactive)
9,COc1cc2nc(SCc3ccncc3)n(Cc3cccc(C(F)(F)F)c3)c(=N)c2cc1OC,> 40 µM (inactive)
10,CCN(CC)S(=O)(=O)c1ccc(-c2csc(N/N=C/c3ccco3)n2)cc1,> 40 µM (inactive)
11,COc1ccc(/C=N/Nc2nc(-c3ccc(S(=O)(=O)N(C)C)cc3)cs2)cc1OC,> 40 µM (inactive)
12,COc1cc2c3nnc(-c4ccccc4)c-3cn(Cc3ccc(F)cc3)c2cc1OC,> 40 µM (inactive)
13,CC(C)C[C@H](NC(=O)c1cn(-c2ccnc3cc(Cl)ccc23)c(-c2ccccc2)n1)C(=O)O,> 40 µM (inactive)
14,COc1ccc(Cn2c(SCc3ccccc3)nc3cc(OC)c(OC)cc3c2=N)cc1Cl,> 40 µM (inactive)
15,CC(C)C[C@H](NC(=O)c1cn(-c2ccnc3cc(Cl)ccc23)c2ccccc12)C(=O)O,> 40 µM (inactive)
16,CCN(CC)c1ccc(/C=N/Nc2nc(-c3ccc(S(=O)(=O)N(C)C)cc3)cs2)cc1,> 40 µM (inactive)
17,CC(C)C[C@H](NC(=O)c1nc(-c2ccncc2)c(-c2ccccc2)s1)C(=O)O,> 40 µM (inactive)
18,COc1ccc(/C=N/Nc2nc(-c3ccc(S(=O)(=O)N(C)C)cc3)cs2)cc1,> 40 µM (inactive)
19,CC(C)C[C@H](NC(=O)c1cn(-c2ccnc3ccccc23)c(-c2ccccc2)n1)C(=O)O,> 40 µM (inactive)
20,CN(C)S(=O)(=O)c1ccc(-c2csc(N/N=C/c3ccccc3)n2)cc1,> 40 µM (inactive)
21,COc1cc2c3nnc(-c4ccc(F)cc4)c-3cn(Cc3ccccc3)c2cc1OC,6.02 µM
22,COc1ccccc1-c1nc(C(=O)N[C@@H](CC(C)C)C(=O)O)cn1-c1ccncc1,> 40 µM (inactive)
23,CCc1ccc(-c2nnc3c4cc(OC)c(OC)cc4n(Cc4ccccc4)cc2-3)cc1,> 40 µM (inactive)
24,COc1ccc(Cn2c(SCc3cccc(C(F)(F)F)c3)nc3cc(OC)c(OC)cc3c2=N)cc1Cl,> 40 µM (inactive)
25,CCOc1ccc(-c2nnc3c4cc(OC)c(OC)cc4n(Cc4ccccc4)cc2-3)cc1,> 40 µM (inactive)
26,CN(C)S(=O)(=O)c1ccc(-c2csc(N/N=C/c3ccc(C(C)(C)C)cc3)n2)cc1,> 40 µM (inactive)

# Next, values leading:
row,EC50,Structure (SMILES)
1,> 40 µM (inactive),CC(=O)c1ccc(N2CCN(c3ncnc4c3cnn4-c3ccc(C)cc3C)CC2)cc1
2,> 40 µM (inactive),Clc1ccccc1-n1ncc2c(N3CCN(c4ccccc4)CC3)ncnc21
3,> 40 µM (inactive),Cc1cc(Cl)ccc1-n1ncc2c(N3CCN(c4ccccc4)CC3)ncnc21
4,> 40 µM (inactive),Cc1ccc(C)c(-n2ncc3c(N4CCN(c5ccccc5)CC4)ncnc32)c1
5,> 40 µM (inactive),CCOc1cc2nc(-c3ccc(OC)c(OC)c3)nc(N3CCN(c4ccccc4)CC3)c2cc1OC
6,> 40 µM (inactive),COc1cc2nc(-c3ccccc3)nc(N3CCN(c4ccccc4)CC3)c2cc1OC
7,> 40 µM (inactive),Cc1ccc(-n2ncc3c(N4CCN(c5ccccc5)CC4)ncnc32)c(C)c1
8,> 40 µM (inactive),COc1cc2nc(C3CCC3)nc(N3CCN(c4ccccc4)CC3)c2cc1OC
9,> 40 µM (inactive),Cc1cccc(-n2ncc3c(N4CCN(c5ccccc5)CC4)ncnc32)c1
10,> 40 µM (inactive),Cc1ccc(-n2ncc3c(N4CCN(c5ccccc5F)CC4)ncnc32)c(C)c1
11,> 40 µM (inactive),Cc1ccc(-n2ncc3c(N4CCN(c5cccc(Cl)c5)CC4)ncnc32)c(C)c1
12,> 40 µM (inactive),COc1cc2ncnc(N3CCN(c4ccccc4OC)CC3)c2cc1OC
13,> 40 µM (inactive),COc1cc2nc(C3CCC3)nc(N3CCN(c4ccccc4C)CC3)c2cc1OC
14,> 40 µM (inactive),Cc1ccc(-n2ncc3c(N4CCN(c5ccc(Cl)c(Cl)c5)CC4)ncnc32)c(C)c1
15,> 40 µM (inactive),COc1ccc(-n2ncc3c(N4CCN(c5ccccc5)CC4)ncnc32)cc1
16,> 40 µM (inactive),COc1cc2nc(-c3ccccc3)nc(N3CCN(c4ccccc4F)CC3)c2cc1OC
17,> 40 µM (inactive),COc1ccc(N2CCN(c3ncnc4c3cnn4-c3ccc(C)cc3C)CC2)cc1

row,EC50,Structure (SMILES)
1,> 40 µM (inactive),CCOc1cc2nc(-c3ccc(OC)c(OC)c3)nc(N3CCN(c4ccccc4F)CC3)c2cc1OC
2,> 40 µM (inactive),COc1ccc(N2CCN(c3nc(C4CCC4)nc4cc(OC)c(OC)cc34)CC2)cc1
3,> 40 µM (inactive),COc1ccccc1N1CCN(c2ncnc3c2cnn3-c2ccc(C)cc2C)CC1
4,> 40 µM (inactive),COc1cc2nc(C3CCC3)nc(N3CCN(c4ccccc4Cl)CC3)c2cc1OC
5,> 40 µM (inactive),Cc1ccc(-n2ncc3c(N4CCN(c5ccccc5)CC4)ncnc32)cc1C
6,> 40 µM (inactive),Cc1ccc(-n2ncc3c(N4CCN(c5ccc([N+](=O)[O-])cc5)CC4)ncnc32)c(C)c1
7,> 40 µM (inactive),Cc1ccc(-n2ncc3c(N4CCN(c5ccc(F)cc5)CC4)ncnc32)c(C)c1
8,> 40 µM (inactive),COc1cc2nc(-c3ccccc3)nc(N3CCN(c4ccccc4OC)CC3)c2cc1OC
9,> 40 µM (inactive),COc1cc2nc(-c3ccccc3)nc(N3CCN(c4ccc(Cl)cc4)CC3)c2cc1OC
10,> 40 µM (inactive),Cc1ccc(-n2ncc3c(N4CCN(c5cc(C)ccc5C)CC4)ncnc32)c(C)c1
11,> 40 µM (inactive),O=C(O)c1nc(-c2ccnc3ccccc23)c(-c2ccccc2)s1
12,> 40 µM (inactive),COc1cc2nc(C3CCC3)nc(N3CCN(c4ccccc4F)CC3)c2cc1OC
13,> 40 µM (inactive),Clc1ccc(-n2ncc3c(N4CCN(c5ccccc5)CC4)ncnc32)cc1
14,> 40 µM (inactive),c1ccc(Cn2cc3c(-c4ccccc4)nnc-3c3ccccc32)cc1
15,> 40 µM (inactive),Cc1ccc(-n2ncc3c(N4CCN(c5ccccc5)CC4)ncnc32)cc1
16,> 40 µM (inactive),COc1cccc(N2CCN(c3nc(C4CCC4)nc4cc(OC)c(OC)cc34)CC2)c1
17,> 40 µM (inactive),COc1cc2nc(C)nc(N3CCN(c4ccccc4OC)CC3)c2cc1OC
